Reference: patent US9067913B2, “Fumigillol type compounds and methods of making and using same” (Zafgen, Inc., priority 2010, dated 2015)
Marks after values point to notes of the source that are not given here.

What was measured:
[1] = Study B: 10 day study, weight loss in mice on 60% kcal fat diet; assay type: in vivo, C57BL/6 mice; settings: PO 3 mg/kg, 10% DMSO
Procedure: Study B was a 10 day study that included 20 week old C57BL/6 mice on 60% kcal fat diet for 14 weeks treated with either 10% DMSO or the same vehicle containing an amount of drug to deliver a dose of 3 mg/kg of compound A for 10 days. FIG. 2 depicts the 7-day PO efficacy at 3 mg/kg of compound A.

MetAP2 [2] = target: T1, MetAP2 (Homo sapiens, UniProt P50579); experiment: cell based assay, inhibition of MetAP2
T1 sequence (P50579 whole entry, species assumed): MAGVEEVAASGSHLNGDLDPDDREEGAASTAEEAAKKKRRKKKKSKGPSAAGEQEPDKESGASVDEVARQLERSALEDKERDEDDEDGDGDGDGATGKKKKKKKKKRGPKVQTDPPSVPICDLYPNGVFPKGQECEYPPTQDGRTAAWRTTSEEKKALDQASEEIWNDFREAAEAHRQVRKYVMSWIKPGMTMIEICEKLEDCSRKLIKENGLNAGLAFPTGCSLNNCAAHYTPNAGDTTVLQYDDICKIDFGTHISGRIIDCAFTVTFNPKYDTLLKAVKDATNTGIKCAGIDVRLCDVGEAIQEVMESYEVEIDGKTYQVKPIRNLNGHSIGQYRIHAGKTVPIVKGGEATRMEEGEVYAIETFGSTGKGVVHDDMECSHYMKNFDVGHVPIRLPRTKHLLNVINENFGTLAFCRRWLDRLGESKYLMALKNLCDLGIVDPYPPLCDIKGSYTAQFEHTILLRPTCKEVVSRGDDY
Procedure: In a cell based assay, the inhibition of MetAP2 was <10 nM.

MetAP2 [3] = target: T1, MetAP2; experiment: MetAP2 enzyme assay; assay type: biochemical; settings: for inhibition at 0.05 µM: 50 nM; for inhibition at 0.2 µM: 200 nM
Procedure: Compound A was tested in a MetAP2 enzyme assay. Table 1 indicates the inhibition results for various concentrations: […]

[4] = weight loss study in obese mice (high-fat diet induced), Example 2; assay type: in vivo, C57BL/6NTac mice; settings: 1.0 mg/kg in 10% gelucire in deionised water, once a day for 7 days, 60% fat diet
Procedure: A weight loss study was conducted in obese mice. The mice in this study were not genetically obese, but prior to and during the study, obesity was induced by a high-fat diet. Twelve week-old C57BL/6NTac mice, maintained on a 60% fat diet prior to and during the study, were separated into seven groups, eight animals per group. Average body weight of the mice was approximately 47 g at the start of the study.
Mice were administered 1.0 mg/kg of compound A in 10% gelucire in deionised water. Mice received administrations once a day for 7 days. The one week weight loss was 11.9%.

MetAP2 [5] = experiment: Example 4: testes biomarker, N-terminal peptide of mouse thioredoxin (SEQ ID NO. 1) by LC-MS/MS; assay type: in vivo; settings: 3 mg/kg for 10 days, testes harvested at end of study
Excerpt: At the end of the study testes from the mice were harvested, homogenized and digested with endoproteinase Glu-C.

[6] = Example 4: body weight loss compared to vehicle, 3 mg/kg for 10 days; assay type: in vivo, C57BL/6 mice; settings: compared with compound (i) and compound (ii)
Procedure: 20 week old C57BL/6 mice on 60% kcal fat diet for 14 weeks treated with either 10% DMSO or the same vehicle containing an amount of drug to deliver a dose of 3 mg/kg of compound (ii) (as identified above), compound (i) [fumigillol], and compound A for 10 days. FIG. 3 indicates the body weight loss compared to vehicle for each compound.

[7] = Study A: 7 day screen, weight loss in mice on 45% kcal fat diet; assay type: in vivo, C57BL/6 mice
Procedure: Three studies were conducted using 18-20 week old C57BL/6 mice. Study A was a 7 day screen that included 18-20 week old C57BL/6 mice that were provided a 45% kcal fat diet for 14 weeks, and treated with either 10% Gelucire in water or the same vehicle containing an amount of compound A to deliver a dose of 1 mg/kg dosed daily for 7 days.

[8] = Study C: 10 day study, weight loss in mice on 60% kcal fat diet; assay type: in vivo, C57BL/6 mice; settings: 10% DMSO
Procedure: Study C was a 10 day study that included 20 week old C57BL/6 mice on 60% kcal fat diet for 14 weeks treated with either 10% DMSO or the same vehicle containing an amount of drug to deliver an oral dose of 1 mg/kg or 3 mg/kg of the compound 6-O-(4-dimethylaminoethoxy)cinnamoyl fumagillol (dimethyl analogue) for 10 days.

| Compound | weight loss at day 7 [1] [%^b] | IC50 (MetAP2 [2]) [nM] | inhibition at 0.05 µM (MetAP2 [3]; 1 hr) [%] | inhibition at 0.2 µM (MetAP2 [3]; 1 hr) [%] | inhibition at 0.05 µM (MetAP2 [3]; 2 hr) [%] | inhibition at 0.2 µM (MetAP2 [3]; 2 hr) [%] | inhibition at 0.05 µM (MetAP2 [3]; 4 hr) [%] | inhibition at 0.2 µM (MetAP2 [3]; 4 hr) [%] | one week weight loss [4] [%] | availability to the testes tissue (concentration of SEQ ID NO. 1, FIG. 4) (MetAP2 [5]) | weight loss potency (FIG. 3) [6] | weight loss at day 7 ([7]; PO 1 mg/kg daily, Study A, 10% Gelucire in water, 45% kcal fat diet) [%^a] | potency dosed orally as compared to 6-O-(4-dimethylaminoethoxy)cinnamoyl fumagillol ([7]; day 7 weight loss, studies A, B, C compared) [times] | weight loss at day 7 ([8]; PO 1 mg/kg) [%^c] | weight loss at day 7 ([8]; PO 3 mg/kg) [%^c] |
| --- | --- | --- | --- | --- | --- | --- | --- | --- | --- | --- | --- | --- | --- | --- | --- |
| CCN(CC)CCOc1ccc(/C=C/C(=O)O[C@@H]2CC[C@]3(CO3)[C@@H]([C@@]3(C)O[C@@H]3CC=C(C)C)[C@@H]2OC)cc1 [Compound A] | 13 | < 10 | 42 | 100 | 45 | 100 | 71 | 100 | 11.9 | not as available to the testes tissue as compared to the other tested compounds | comparable weight loss potency | 12 | ≥ 3 |  |  |
| CO[C@@H]1[C@H](OC(=O)C=Cc2ccc(OCCN(C)C)cc2)CC[C@]2(CO2)[C@H]1[C@@]1(C)O[C@@H]1CC=C(C)C [dimethyl analogue, 6-O-(4-dimethylaminoethoxy)cinnamoyl fumagillol] |  |  |  |  |  |  |  |  |  |  |  |  |  | 1.1 | 11 |
